Measurements from ChEMBL document CHEMBL1144453, “Ligand binding analysis for human alpha5beta1 integrin: strategies for designing new alpha5beta1 integrin antagonists” (J Med Chem, 2005).

Target: Integrin alpha-5/beta-1 (Homo sapiens, UniProt P05556+P08648)
Test: Inhibition of alpha5-beta1 integrin receptor in ELISA
Assay type: protein-complex assay

Integrin alpha-5/beta-1, sequence (P05556 21-798 limits assumed): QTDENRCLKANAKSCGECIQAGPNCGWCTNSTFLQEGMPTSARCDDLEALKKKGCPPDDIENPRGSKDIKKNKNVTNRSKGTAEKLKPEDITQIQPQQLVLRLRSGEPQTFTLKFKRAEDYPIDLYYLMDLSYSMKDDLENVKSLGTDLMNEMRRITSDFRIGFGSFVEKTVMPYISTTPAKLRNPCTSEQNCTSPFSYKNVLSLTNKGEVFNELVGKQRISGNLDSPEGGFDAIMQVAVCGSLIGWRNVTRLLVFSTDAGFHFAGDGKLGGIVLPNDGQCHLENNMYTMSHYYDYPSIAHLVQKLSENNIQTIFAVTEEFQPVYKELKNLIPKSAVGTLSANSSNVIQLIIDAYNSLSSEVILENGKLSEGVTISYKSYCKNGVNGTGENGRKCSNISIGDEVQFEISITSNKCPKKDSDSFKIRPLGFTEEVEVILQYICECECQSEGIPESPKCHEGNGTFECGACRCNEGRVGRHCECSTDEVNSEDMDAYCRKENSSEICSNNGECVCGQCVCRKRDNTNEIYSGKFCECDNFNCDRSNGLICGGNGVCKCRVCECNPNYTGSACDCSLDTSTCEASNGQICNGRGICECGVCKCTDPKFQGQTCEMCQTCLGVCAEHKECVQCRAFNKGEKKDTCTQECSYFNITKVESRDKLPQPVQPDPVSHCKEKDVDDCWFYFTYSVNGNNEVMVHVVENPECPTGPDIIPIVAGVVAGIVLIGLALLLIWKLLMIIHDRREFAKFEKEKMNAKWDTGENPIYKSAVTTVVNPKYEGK
Integrin alpha-5/beta-1, sequence (P08648 42-894 limits assumed): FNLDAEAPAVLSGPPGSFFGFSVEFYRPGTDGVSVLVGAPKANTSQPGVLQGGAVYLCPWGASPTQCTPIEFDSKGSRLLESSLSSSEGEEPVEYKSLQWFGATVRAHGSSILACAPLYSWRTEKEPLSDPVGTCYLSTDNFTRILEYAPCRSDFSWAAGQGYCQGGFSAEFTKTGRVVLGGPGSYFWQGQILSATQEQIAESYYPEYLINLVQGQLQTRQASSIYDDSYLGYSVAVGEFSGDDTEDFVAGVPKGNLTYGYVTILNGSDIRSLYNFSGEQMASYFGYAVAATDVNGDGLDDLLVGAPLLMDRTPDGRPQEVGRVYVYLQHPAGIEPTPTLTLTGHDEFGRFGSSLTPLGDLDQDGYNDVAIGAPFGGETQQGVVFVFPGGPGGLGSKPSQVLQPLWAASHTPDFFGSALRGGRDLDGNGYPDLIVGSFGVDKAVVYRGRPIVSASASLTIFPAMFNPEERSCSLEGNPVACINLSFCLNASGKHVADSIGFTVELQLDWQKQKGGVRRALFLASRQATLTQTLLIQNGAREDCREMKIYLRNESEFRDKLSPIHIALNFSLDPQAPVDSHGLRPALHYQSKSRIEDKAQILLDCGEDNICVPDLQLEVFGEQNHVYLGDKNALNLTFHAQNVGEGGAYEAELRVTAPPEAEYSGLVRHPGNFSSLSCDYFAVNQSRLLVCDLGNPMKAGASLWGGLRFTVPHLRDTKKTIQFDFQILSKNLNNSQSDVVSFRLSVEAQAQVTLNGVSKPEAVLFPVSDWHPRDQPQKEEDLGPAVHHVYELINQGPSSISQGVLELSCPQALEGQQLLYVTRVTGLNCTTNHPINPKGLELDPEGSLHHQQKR
Integrin alpha-5/beta-1, sequence (P08648 895-1049 limits assumed): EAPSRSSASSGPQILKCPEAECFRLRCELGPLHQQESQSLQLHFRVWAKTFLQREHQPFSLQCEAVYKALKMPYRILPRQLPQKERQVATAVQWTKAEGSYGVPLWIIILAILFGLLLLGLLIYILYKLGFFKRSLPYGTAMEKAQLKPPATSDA

Row | IC50 [nM] | SMILES
1 | 1200 | Cc1cc(C)c(S(=O)(=O)N[C@@H](CNC(=O)C2=NOC3(C2)C[C@@H](CNC2NC=CN2)N(C(=O)OCc2ccccc2)C3)C(=O)O)c(C)c1 (single isomer, unassigned)
2 | 13 | Cc1cc(C)c(S(=O)(=O)N[C@@H](CNC(=O)C2=NO[C@]3(C2)C[C@@H](CNC2NC=CN2)N(C(=O)OCc2ccccc2)C3)C(=O)O)c(C)c1

Target: Integrin alpha-V/beta-3 (Homo sapiens, UniProt P05106+P06756)
Test: Inhibition of fibrinogen binding to alphaV-beta3 integrin receptor
Assay type: protein-complex assay

Integrin alpha-V/beta-3, sequence (P05106 27-788 limits assumed): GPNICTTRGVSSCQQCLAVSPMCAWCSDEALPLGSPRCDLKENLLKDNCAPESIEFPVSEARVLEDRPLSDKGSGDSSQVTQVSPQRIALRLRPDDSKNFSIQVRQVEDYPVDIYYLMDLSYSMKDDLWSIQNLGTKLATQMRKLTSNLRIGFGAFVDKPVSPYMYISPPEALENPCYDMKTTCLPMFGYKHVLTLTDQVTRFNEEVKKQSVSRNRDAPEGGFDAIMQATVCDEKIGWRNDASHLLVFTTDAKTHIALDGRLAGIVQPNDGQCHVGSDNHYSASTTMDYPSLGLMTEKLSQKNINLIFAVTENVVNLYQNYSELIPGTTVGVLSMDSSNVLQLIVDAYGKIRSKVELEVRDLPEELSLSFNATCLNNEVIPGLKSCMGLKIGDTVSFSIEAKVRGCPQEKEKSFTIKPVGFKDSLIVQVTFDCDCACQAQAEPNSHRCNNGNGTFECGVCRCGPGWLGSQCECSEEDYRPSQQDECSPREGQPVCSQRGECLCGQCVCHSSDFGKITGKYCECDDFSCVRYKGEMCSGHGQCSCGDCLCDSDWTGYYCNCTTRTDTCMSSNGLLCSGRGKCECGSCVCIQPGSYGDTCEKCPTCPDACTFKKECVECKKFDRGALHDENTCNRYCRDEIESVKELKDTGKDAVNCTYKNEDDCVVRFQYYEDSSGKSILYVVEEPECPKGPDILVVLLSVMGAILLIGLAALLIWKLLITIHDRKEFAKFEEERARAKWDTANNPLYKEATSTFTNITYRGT
Integrin alpha-V/beta-3, sequence (P06756 31-889 limits assumed): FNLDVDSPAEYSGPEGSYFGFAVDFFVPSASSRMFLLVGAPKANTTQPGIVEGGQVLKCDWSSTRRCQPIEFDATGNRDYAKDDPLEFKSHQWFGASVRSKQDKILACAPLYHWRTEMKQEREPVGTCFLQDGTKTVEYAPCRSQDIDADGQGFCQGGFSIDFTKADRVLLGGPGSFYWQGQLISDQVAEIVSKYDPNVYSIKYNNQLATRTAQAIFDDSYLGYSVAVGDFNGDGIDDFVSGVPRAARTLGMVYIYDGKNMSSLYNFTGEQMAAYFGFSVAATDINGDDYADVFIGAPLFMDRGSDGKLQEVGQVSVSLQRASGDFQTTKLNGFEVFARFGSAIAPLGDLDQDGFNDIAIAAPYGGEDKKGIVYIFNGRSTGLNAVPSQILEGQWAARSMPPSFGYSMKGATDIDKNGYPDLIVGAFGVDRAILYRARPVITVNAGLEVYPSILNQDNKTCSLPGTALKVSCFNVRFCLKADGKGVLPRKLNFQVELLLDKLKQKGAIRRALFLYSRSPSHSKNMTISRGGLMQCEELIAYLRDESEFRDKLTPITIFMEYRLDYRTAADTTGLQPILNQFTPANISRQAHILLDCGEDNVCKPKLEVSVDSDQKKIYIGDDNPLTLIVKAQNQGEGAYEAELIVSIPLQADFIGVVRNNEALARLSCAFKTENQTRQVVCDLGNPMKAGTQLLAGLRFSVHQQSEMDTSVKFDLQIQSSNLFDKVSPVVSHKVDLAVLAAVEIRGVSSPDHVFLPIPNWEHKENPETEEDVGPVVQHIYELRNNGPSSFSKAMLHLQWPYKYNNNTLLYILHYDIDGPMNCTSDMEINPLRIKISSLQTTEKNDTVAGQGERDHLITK
Integrin alpha-V/beta-3, sequence (P06756 891-1048 limits assumed): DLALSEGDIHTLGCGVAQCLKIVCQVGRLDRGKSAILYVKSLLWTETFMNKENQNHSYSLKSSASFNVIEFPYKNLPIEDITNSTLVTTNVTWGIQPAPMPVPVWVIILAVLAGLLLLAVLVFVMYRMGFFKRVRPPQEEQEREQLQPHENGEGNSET

Row | IC50 [nM] | SMILES
3 | 87 | CCCCOC(=O)N1C[C@@]2(CC(C(=O)NC[C@H](NS(=O)(=O)c3c(C)cc(C)cc3C)C(=O)O)=NO2)C[C@H]1CNc1nc2ccccc2[nH]1
4 | > 1000 | Cc1cc(C)c(S(=O)(=O)N[C@@H](CNC(=O)C2=NOC3(C2)C[C@@H](CNC2NC=CN2)N(C(=O)OCc2ccccc2)C3)C(=O)O)c(C)c1 (single isomer, unassigned)
5 | 32 | Cc1cc(C)c(S(=O)(=O)N[C@@H](CNC(=O)C2=NO[C@]3(C2)C[C@@H](CNc2ncc[nH]2)N(C(=O)OCc2cccnc2)C3)C(=O)O)c(C)c1
6 | 57 | Cc1cc(C)c(S(=O)(=O)N[C@@H](CNC(=O)C2=NO[C@]3(C2)C[C@@H](CNC2NC=CN2)N(C(=O)OCc2ccccc2)C3)C(=O)O)c(C)c1
7 | 49 | Cc1cc(C)c(S(=O)(=O)N[C@@H](CNC(=O)C2=NO[C@]3(C2)C[C@@H](CNc2ccccn2)N(C(=O)OCc2ccccc2)C3)C(=O)O)c(C)c1
8 | 34 | COC(=O)N1C[C@@]2(CC(C(=O)NC[C@H](NS(=O)(=O)c3c(C)cc(C)cc3C)C(=O)O)=NO2)C[C@H]1CNc1nc2ccccc2[nH]1
9 | 57 | COC(=O)N1C[C@@]2(CC(C(=O)NC[C@H](NS(=O)(=O)c3c(C)cc(C)cc3C)C(=O)O)=NO2)C[C@H]1CNc1ncc[nH]1
10 | 180 | Cc1cc(C)c(S(=O)(=O)N[C@@H](CNC(=O)C2=NO[C@]3(CN[C@H](CNc4ncc[nH]4)C3)C2)C(=O)O)c(C)c1
11 | 130 | CCCCOC(=O)N1C[C@@]2(CC(C(=O)NC[C@H](NS(=O)(=O)c3c(C)cc(C)cc3C)C(=O)O)=NO2)C[C@H]1CNc1ncc[nH]1
12 | 41 | Cc1cc(C)c(S(=O)(=O)N[C@@H](CNC(=O)C2=NO[C@]3(C2)C[C@@H](CNc2ncc[nH]2)N(C(=O)OCc2ccccc2)C3)C(=O)O)c(C)c1

Target: Integrin alpha-IIb/beta-3 (Homo sapiens, UniProt P05106+P08514)
Test: Inhibition of alpha IIb beta3 integrin receptor in human platelet rich plasma

Integrin alpha-IIb/beta-3, sequence (P05106 27-788 limits assumed): as the sequence (P05106 27-788 limits assumed) above
Integrin alpha-IIb/beta-3, sequence (P08514 32-887 limits assumed): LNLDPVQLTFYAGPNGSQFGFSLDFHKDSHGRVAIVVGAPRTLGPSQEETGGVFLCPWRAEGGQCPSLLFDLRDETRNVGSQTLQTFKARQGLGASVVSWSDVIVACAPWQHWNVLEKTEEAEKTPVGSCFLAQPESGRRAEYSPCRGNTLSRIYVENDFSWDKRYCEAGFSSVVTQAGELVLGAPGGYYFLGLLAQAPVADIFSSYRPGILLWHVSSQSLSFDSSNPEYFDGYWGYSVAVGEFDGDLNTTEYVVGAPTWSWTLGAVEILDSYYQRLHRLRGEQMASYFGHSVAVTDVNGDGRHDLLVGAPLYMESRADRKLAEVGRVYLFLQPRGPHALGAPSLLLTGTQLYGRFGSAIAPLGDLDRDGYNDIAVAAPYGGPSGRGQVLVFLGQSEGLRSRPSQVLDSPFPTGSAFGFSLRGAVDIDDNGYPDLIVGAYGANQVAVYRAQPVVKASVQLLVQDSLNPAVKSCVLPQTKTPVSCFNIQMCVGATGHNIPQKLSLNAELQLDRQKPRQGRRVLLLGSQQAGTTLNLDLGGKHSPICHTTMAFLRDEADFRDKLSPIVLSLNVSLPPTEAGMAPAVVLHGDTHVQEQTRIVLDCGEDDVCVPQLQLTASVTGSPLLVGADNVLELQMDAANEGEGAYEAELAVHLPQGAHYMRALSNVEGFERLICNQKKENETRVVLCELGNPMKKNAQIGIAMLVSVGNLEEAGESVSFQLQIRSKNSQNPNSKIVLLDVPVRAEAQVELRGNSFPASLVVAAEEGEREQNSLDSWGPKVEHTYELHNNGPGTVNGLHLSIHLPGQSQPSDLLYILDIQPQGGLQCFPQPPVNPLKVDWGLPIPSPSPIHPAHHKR
Integrin alpha-IIb/beta-3, sequence (P08514 891-1039 limits assumed): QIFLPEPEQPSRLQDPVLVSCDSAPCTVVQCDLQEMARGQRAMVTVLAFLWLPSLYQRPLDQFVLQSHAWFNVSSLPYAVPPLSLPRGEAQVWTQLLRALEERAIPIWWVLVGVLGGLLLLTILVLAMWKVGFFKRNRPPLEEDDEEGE

Row | IC50 [nM] | SMILES
13 | > 100000 | CCCCOC(=O)N1C[C@@]2(CC(C(=O)NC[C@H](NS(=O)(=O)c3c(C)cc(C)cc3C)C(=O)O)=NO2)C[C@H]1CNc1nc2ccccc2[nH]1
14 | 9200 | Cc1cc(C)c(S(=O)(=O)N[C@@H](CNC(=O)C2=NOC3(C2)C[C@@H](CNC2NC=CN2)N(C(=O)OCc2ccccc2)C3)C(=O)O)c(C)c1 (single isomer, unassigned)
15 | 5600 | Cc1cc(C)c(S(=O)(=O)N[C@@H](CNC(=O)C2=NO[C@]3(C2)C[C@@H](CNc2ncc[nH]2)N(C(=O)OCc2cccnc2)C3)C(=O)O)c(C)c1
16 | 7300 | Cc1cc(C)c(S(=O)(=O)N[C@@H](CNC(=O)C2=NO[C@]3(C2)C[C@@H](CNC2NC=CN2)N(C(=O)OCc2ccccc2)C3)C(=O)O)c(C)c1
17 | > 100000 | Cc1cc(C)c(S(=O)(=O)N[C@@H](CNC(=O)C2=NO[C@]3(C2)C[C@@H](CNc2ccccn2)N(C(=O)OCc2ccccc2)C3)C(=O)O)c(C)c1
18 | > 100000 | COC(=O)N1C[C@@]2(CC(C(=O)NC[C@H](NS(=O)(=O)c3c(C)cc(C)cc3C)C(=O)O)=NO2)C[C@H]1CNc1nc2ccccc2[nH]1
19 | 7300 | COC(=O)N1C[C@@]2(CC(C(=O)NC[C@H](NS(=O)(=O)c3c(C)cc(C)cc3C)C(=O)O)=NO2)C[C@H]1CNc1ncc[nH]1
20 | 1400 | Cc1cc(C)c(S(=O)(=O)N[C@@H](CNC(=O)C2=NO[C@]3(CN[C@H](CNc4ncc[nH]4)C3)C2)C(=O)O)c(C)c1
21 | 11000 | CCCCOC(=O)N1C[C@@]2(CC(C(=O)NC[C@H](NS(=O)(=O)c3c(C)cc(C)cc3C)C(=O)O)=NO2)C[C@H]1CNc1ncc[nH]1
22 | 34000 | Cc1cc(C)c(S(=O)(=O)N[C@@H](CNC(=O)C2=NO[C@]3(C2)C[C@@H](CNc2ncc[nH]2)N(C(=O)OCc2ccccc2)C3)C(=O)O)c(C)c1
